Test results published in patent publication US20220323761A1, “METHOD FOR INDUCING HIBERNATION-LIKE STATE AND DEVICE SAME” (University of Tsukuba, priority 2019, published 2022).

Assays:
[1] = target: T1, adenosine A1 receptor (Mus musculus, UniProt Q60612); assay: Metabolic state induced by IP CHA in wild-type mice; assay type: in vivo
T1 construct: endogenous in cells; host or cells: whole mouse, in vivo (intraperitoneal CHA)
T1 sequence (Q60612 1-326): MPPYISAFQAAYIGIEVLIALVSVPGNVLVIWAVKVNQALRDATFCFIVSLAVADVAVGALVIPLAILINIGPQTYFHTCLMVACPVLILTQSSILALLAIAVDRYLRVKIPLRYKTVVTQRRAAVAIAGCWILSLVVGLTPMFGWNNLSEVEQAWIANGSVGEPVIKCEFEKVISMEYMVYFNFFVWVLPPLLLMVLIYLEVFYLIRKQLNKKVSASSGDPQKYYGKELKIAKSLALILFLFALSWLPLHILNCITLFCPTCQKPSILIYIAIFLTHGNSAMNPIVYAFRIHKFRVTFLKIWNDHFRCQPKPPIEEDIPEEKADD
From the text: In order to record the core body temperature, oxygen consumption amount, EEG, ECG, and respiratory patterns, each animal was housed in a temperature controlled chamber (HC-100, Shin Factory or LP-400P-AR, Nippon Medical & Chemical Instruments Co., Ltd.). In order to continuously record the TB (intraperitoneal temperature), a telemetry temperature sensor (TA11TA-F10, DSI) was implanted into the animal's abdominal cavity under general inhalation anesthesia at least 7 days prior to the recording. The VO 2 and carbon dioxide discharge rate (VCO2) of the animal were continuously recorded using a respiratory gas analyzer (ARCO-2000 mass spectrometer, ARCO System). The respiratory quotient was calculated from the ratio of VCO2/VO2.
The Dreadd agonist CNO (clozapine N-oxide, Abcam, ab141704) was dissolved in physiological saline at a dose of 100 μg/mL, and the solution was frozen at −20° C. The CNO solution was thawed on site and then administered to each mouse intraperitoneally at a dose of 1 mg/kg. The adenosineAl receptor agonist CHA (N^6-cyclohexyl adenosine, Sigma-Aldrich, C9901) was dissolved in physiological saline at a concentration of 250 μg/mL, and the solution was administered intraperitoneally to each mouse at a dose of 2.5 mg/kg.

[2] = administered centrally; cited from earlier work

Compound	induction of hypothermic/hypometabolic state ([1]; IP 2.5 mg/kg, wild-type mice)	reaction to low TA through behavior (posture and shivering) or increase in VO2 ([1]; TA 12° C., IP 2.5 mg/kg)	TB and VO2 at lowered TA ([1]; TA set to 12° C.)	TB compared with QIH ([1]; at 20°)	heart rate and blood pressure [2]	sympathetic nerve outflow [2]
OC[C@H]1O[C@@H](n2cnc3c(NC4CCCCC4)ncnc32)[C@H](O)[C@@H]1O [CHA, N^6-cyclohexyl adenosine]	effectively induced a hypothermic/hypometabolic state	did not react	further reduced	tends to be higher		
pyroglutamylated RFamide peptide (QDEGSEATGFLPAAGEKTSGPLGNLAEELNGYSRKKGGFSFRF; QRF-amide; UniProt P83859 91-133, looked up) [Qrfp, hypothalamic neuropeptide, endogenous ligand of the orphan G-protein-coupled receptor hGPR103]					increase	increases
